Test results reported in patent US12564638B2 (SHANGHAITECH UNIVERSITY, priority 2019, dated 2026).

Key:
[1] = test system: HCC827 cells (EGFR Exon19 del, non-small cell lung cancer cells); assay: Cell viability assay (WST/CCK8), HCC827 cells; assay type: cell-based; conditions: Homo sapiens, HCC827, 72 h, HCC827 (Exon19 Del), 72 hours, WST (CCK8); read-out: IC50 (half inhibitory concentration)
In short: (§1)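 Cells seeded at 3 000/well in RPMI1640 complete medium, dosed next day with compounds (top 10 μM, 3-fold, 10 points) for 72 h. Viability read with WST (CCK8) reagent; DMSO as negative control, EGFR TKIs as positive controls; IC50 determined.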

[2] = test system: PC9 cells (EGFR Exon 19 del, non-small cell lung cancer cells); assay: Cell viability assay (WST/CCK8), PC9 cells; assay type: cell-based; conditions: Homo sapiens, PC-9; PC9 (Exon19 Del), 72 hours, WST (CCK8); read-out: IC50 (half inhibitory concentration)
In short: as §1

IC50 [1]	IC50 [2]	Compound
4.3 nM	6.3 nM	COc1cc2ncnc(Nc3ccc(F)c(Cl)c3)c2cc1NC(=O)/C=C/CN1CCC(N2CCN(C(=O)CCCCCNc3cccc4c3CN(C3CCC(=O)NC3=O)C4=O)CC2)CC1 (centres unmarked) [SIAIS337035, (E)-N-(4-((3-chloro-4-fluorophenyl)amino)-7-methoxyquinazolin-6-yl)-4-(4-(4-(6-((2-(2,6-dioxopiperidin-3-yl)-1-oxoisoindolin-4-yl)amino)hexanoyl)piperazin-1-yl)piperidin-1-yl)but-2-enamide]
0.7 nM	1.3 nM	COc1cc2ncnc(Nc3ccc(F)c(Cl)c3)c2cc1NC(=O)/C=C/CN1CCC(N2CCN(C(=O)CCCCCCNc3cccc4c3CN(C3CCC(=O)NC3=O)C4=O)CC2)CC1 (centres unmarked) [SIAIS337036, (E)-N-(4-((3-chloro-4-fluorophenyl)amino)-7-methoxyquinazolin-6-yl)-4-(4-(4-(7-((2-(2,6-dioxopiperidin-3-yl)-1-oxoisoindolin-4-yl)amino)heptanoyl)piperazin-1-yl)piperidin-1-yl)but-2-enamide]
0.3 nM	0.7 nM	COc1cc2ncnc(Nc3ccc(F)c(Cl)c3)c2cc1NC(=O)/C=C/CN1CCC(N2CCN(C(=O)CCCCCCCCCSc3cccc4c3CN(C3CCC(=O)NC3=O)C4=O)CC2)CC1 (centres unmarked) [SIAIS337037, (E)-N-(4-((3-chloro-4-fluorophenyl)amino)-7-methoxyquinazolin-6-yl)-4-(4-(4-(10-((2-(2,6-dioxopiperidin-3-yl)-1-oxoisoindolin-4-yl)thio)decanoyl)piperazin-1-yl)piperidin-1-yl)but-2-enamide]

More lines, now with the values behind:

Compound	IC50 [1]	IC50 [2]
COc1cc2ncnc(Nc3ccc(F)c(Cl)c3)c2cc1NC(=O)/C=C/CN1CCC(N2CCN(C(=O)CCCCOc3cccc4c3CN(C3CCC(=O)NC3=O)C4=O)CC2)CC1 (centres unmarked) [SIAIS337026, (E)-N-(4-((3-chloro-4-fluorophenyl)amino)-7-methoxyquinazolin-6-yl)-4-(4-(4-(5-((2-(2,6-dioxopiperidin-3-yl)-1-oxoisoindolin-4-yl)oxy)pentanoyl)piperazin-1-yl)piperidin-1-yl)but-2-enamide]	0.5 nM	8.6 nM
COc1cc2ncnc(Nc3ccc(F)c(Cl)c3)c2cc1NC(=O)/C=C/CN1CCC(N2CCN(C(=O)CCCCCOc3cccc4c3CN(C3CCC(=O)NC3=O)C4=O)CC2)CC1 (centres unmarked) [SIAIS337027, (E)-N-(4-((3-chloro-4-fluorophenyl)amino)-7-methoxyquinazolin-6-yl)-4-(4-(4-(6-((2-(2,6-dioxopiperidin-3-yl)-1-oxoisoindolin-4-yl)oxy)hexanoyl)piperazin-1-yl)piperidin-1-yl)but-2-enamide]	1.1 nM	13.2 nM
COc1cc2ncnc(Nc3ccc(F)c(Cl)c3)c2cc1NC(=O)/C=C/CN1CCC(N2CCN(C(=O)CCCCCCOc3cccc4c3CN(C3CCC(=O)NC3=O)C4=O)CC2)CC1 (centres unmarked) [SIAIS337028, (E)-N-(4-((3-chloro-4-fluorophenyl)amino)-7-methoxyquinazolin-6-yl)-4-(4-(4-(7-((2-(2,6-dioxopiperidin-3-yl)-1-oxoisoindolin-4-yl)oxy)heptanoyl)piperazin-1-yl)piperidin-1-yl)but-2-enamide]	0.9 nM	20.3 nM
COc1cc2ncnc(Nc3ccc(F)c(Cl)c3)c2cc1NC(=O)/C=C/CN1CCC(N2CCN(CCCCCCOc3cccc4c3CN(C3CCC(=O)NC3=O)C4=O)CC2)CC1 (centres unmarked) [SIAIS337029, (E)-N-(4-((3-chloro-4-fluorophenyl)amino)-7-methoxyquinazolin-6-yl)-4-(4-(4-(6-((2-(2,6-dioxopiperidin-3-yl)-1-oxoisoindolin-4-yl)oxy)hexyl)piperazin-1-yl)piperidin-1-yl)but-2-enamide]	0.3 nM	28.4 nM
